Data from patent US11260011B2, “Use of neohesperidin” (NATURAL MEDICINE INSTITUTE OF ZHEJIANG YANGSHENGTANG CO., …, priority 2011, dated 2022).
Where “and” joins values, the source holds several entries; their conditions need not be identical. Equal entries are not always repeated.

Tests used:
[1] = topical application to human skin; cited from earlier work
[2] = Effect of topical application of neohesperidin on skin microcirculation by Laser Doppler Flowmetery; type: in vivo, Oryctolagus cuniculus; parameters: key to Working time point: —: represents the time point at which P < 0.1 did not appear during the 24 h test when 2% solution was administered orally
Description: The experimental method for promoting microcirculation: Male Oryctolagus cuniculus weighted 3.0-3.5 kg were used. After shaving the hair on the back of the Oryctolagus cuniculus, 10 points for testing blood flow were marked with a marker pen on the hairless skin of the rabbit, i.e. 5 points for each of the right side and the left side, and aorta was avoided when drawing the points. Before smearing the sample, the basic values of blood flow at the 10 points of rabbits of each experimental group were determined by Laser Doppler Flowmetery. […] 2% (w/v) solution was orally administrated by a similar method in a volume 100 times compared to the volume used in the group wherein the 2% (w/v) solution was administered by smearing. After administration, the blood flow value was determined every hour at the same point by Laser Doppler Flowmetery for 24 h, and the variation index of blood flow was calculated to evaluate the effect of neohesperidin on the back blood of rabbits, wherein a higher variation index of blood flow indicated a better effect of promoting microcirculation. The experimental results were statistically analyzed by SPSS11.5 software, and t-test was applied to the measured data to evaluate the experimental results. When P<0.1, the data may be regarded as statistically significant. In the results of Table 1, all the time points with P<0.1 in the 24-h test were listed.

β-aescin
improvement of skin microcirculation after topical administration to skin surface [1]: cannot significantly improve skin microcirculation

COc1ccc([C@@H]2CC(=O)c3c(O)cc(O[C@@H]4O[C@H](CO)[C@@H](O)[C@H](O)[C@H]4O[C@@H]4O[C@@H](C)[C@H](O)[C@@H](O)[C@H]4O)cc3O2)cc1O [neohesperidin]
Working time point ([2]; 0.5% (w/v) solution, smearing on back skin, time points with P<0.1 in 24-h test): 6 h
Working time point ([2]; 1% (w/v) solution, smearing on back skin, time points with P<0.1 in 24-h test): 2 h and 3 h
Working time point ([2]; 2% (w/v) solution, orally, 24-h test): —
blood flow in skin microvessels as compared to the blank side ([2]; smearing backs of rabbits with different concentrations): significantly enhanced

ginkgo flavone
improvement of skin microcirculation after topical administration to skin surface [1]: cannot significantly improve skin microcirculation

C[C@@H]1CC[C@@]2(OC1)O[C@H]1C[C@H]3[C@@H]4CC=C5C[C@@H](O)C[C@@H](O)[C@]5(C)[C@H]4CC[C@]3(C)[C@H]1[C@@H]2C [ruscogenin]
improvement of skin microcirculation after topical administration to skin surface [1]: cannot significantly improve skin microcirculation

ginsenoside
improvement of skin microcirculation after topical administration to skin surface [1]: cannot significantly improve skin microcirculation

tanshinone
improvement of skin microcirculation after topical administration to skin surface [1]: cannot significantly improve skin microcirculation
